The source of these data is US20090227556A1, “RECEPTOR TYROSINE KINASE INHIBITORS COMPRISING PYRIDINE AND PYRIMIDINE DERIVATIVES” (Eisai R&D Management Co., Ltd., priority 2008, published 2009).

Test [1] deals with Human umbilical vein endothelial cells (HUVECs). In words: Growth inhibitory activity on human umbilical vein endothelial cells stimulated by VEGF. It counts as cell-based. The note with it: HUVEC, 72 h, 3 days, Cell Counting Kit-8. As to the method: Human umbilical vein endothelial cells (HUVECs) were isolated according to the reported method (Shin-seikagaku jikken kouza “saibou baiyou gijutu (Cell culturing techniques)” p. 197-202) and incubated to confluence using an EGM-2 culture medium (obtained from Sanko Junyaku Co., Ltd.) in a 5% CO2 incubator (37° C.). The HUVECs were collected by a trypsin-EDTA treatment and washed with a culture medium (2% fetal bovine serum-supplemented Human endothelial SFM basal medium, obtained from Invitrogen Corp.), followed by suspending them in the medium to count the cell number. By diluting it with the medium, a 2×10^4 cells/ml cell suspension was prepared. The cell suspension was dispensed into a 96-well plate (obtained from FALCON) by 100 μl each, and incubated at 37° C. in a 5% CO2 incubator overnight. After the incubation, 50 μl of the test substance diluted with the medium was added to each well, and 50 μL of 80 ng/ml human recombinant VEGF (obtained from R&D systems, Inc.) diluted with the medium was added and further incubated for 3 days in the 5% CO2 incubator (37° C.). After the incubation, 20 μl of Cell Counting Kit-8 (obtained from DOJINDO Laboratories) was added to each well, which were incubated for about 2 hours in the 5% CO2 incubator (37° C.). After the incubation, the absorbance of the each well was measured using a plate reader MTP-500 (Corona Electric Co., Ltd) with a measurement wavelength of 450 nm and a control wavelength of 660 nm. A ratio of absorbance (%) of each well with the test substance against the wells without the test substance was determined, and based on this ratio, the concentration of the test substance required to inhibit 50% of cell proliferation (IC50) was determined and the results are shown in Table 2.
(In general: Tetrazolium dyes change colour on reduction, which living cells bring about.)

The target in test [2] is T1, RET (Homo sapiens, UniProt P07949).
T1 construct: purchased Carna Biosciences Inc. 08-159
In words: Tyrosine kinase inhibition, mobility shift assay (MSA). The note with it: recombinant human kinase. It counts as biochemical. On the procedure:
(§1) A test compound was dissolved in dimethyl sulfoxide to make a 10 mM solution, which was stored in a dark place at 4° C. until use.
(§2) Protein tyrosine kinases (recombinant human kinases) used in the study were the following products from Carna Biosciences Inc. (Kobe, Japan).
(§3) VEGFR-1 (FLT 1) (product number: 08-189) VEGFR-3 (FLT 4) (product number: 08-190) RON (product number: 08-152) RET (product number: 08-159) KIT (product number: 08-156)
(§4) Kinase activity was measured in a mobility shift assay (MSA) method (J. Biomolecular Screening, 11, 359-368, 2006) using QuickScout Screening Assist™ (Carna Biosciences Inc., commercial kit), and enzyme-linked immunoassay (ELISA).
(§5) 5 μl of the test substance solution obtained by dissolving or suspending in an assay buffer (20 mM Hepes, 0.01% Triton X-100, 1 mM dithiothreitol, pH 7.4) (4× final concentration) or 5 μl of a solvent (4% dimethyl sulfoxide-assay buffer) was dispensed into a polypropylene 384-well plate (Greiner Bio-One, product number 781280). Then, 5 μl of QuickScout Screening Assist™ MSA in an ATP/substrate/metal solution was added. Additionally, 10 μl of the kinase solution diluted with the assay buffer was added to initiate a reaction. For a blank, only 10 μl of the assay buffer was added. The kinase concentration and reaction conditions were in accordance with the protocol of QuickScout Screening Assist™ MSA. Then, the reaction was terminated by addition of 60 μl of a termination buffer of the QuickScout Screening Assist™ MSA, and the amount of a substrate (S) and a phosphorylated substrate (P) in the reaction solution were determined using LabChip3000 (Caliper Life Science, Massachusetts, U.S.A.) in accordance with the protocol of QuickScout Screening Assist™ MSA. The amounts of the S and P were represented by respective separated peak height. […] It was on the condition that the signal was determined as P/(P+S).

In test [3] the target is T2, VEGFR-3 (FLT 4) (Homo sapiens, UniProt P35916).
T2 construct: purchased Carna Biosciences Inc. 08-190
The test is described as above. It counts as biochemical. The note with it: recombinant human kinase. On the procedure:
as §1, §2, §3, §4, §5

The target of test [4] is T3, RON (Homo sapiens, UniProt Q04912).
T3 construct: purchased Carna Biosciences Inc. 08-152
The test is described as above. It counts as biochemical. The note with it: recombinant human kinase. On the procedure: as §1, §2, §3, §4, §5

Test [5] addresses T4, VEGFR-1 (FLT 1) (Homo sapiens, UniProt P17948).
T4 construct: purchased Carna Biosciences Inc. 08-189
The test is described as above. It counts as biochemical. The note with it: recombinant human kinase. As to the method: as §1, §2, §3, §4, §5

T3 sequence (Q04912 25-1400): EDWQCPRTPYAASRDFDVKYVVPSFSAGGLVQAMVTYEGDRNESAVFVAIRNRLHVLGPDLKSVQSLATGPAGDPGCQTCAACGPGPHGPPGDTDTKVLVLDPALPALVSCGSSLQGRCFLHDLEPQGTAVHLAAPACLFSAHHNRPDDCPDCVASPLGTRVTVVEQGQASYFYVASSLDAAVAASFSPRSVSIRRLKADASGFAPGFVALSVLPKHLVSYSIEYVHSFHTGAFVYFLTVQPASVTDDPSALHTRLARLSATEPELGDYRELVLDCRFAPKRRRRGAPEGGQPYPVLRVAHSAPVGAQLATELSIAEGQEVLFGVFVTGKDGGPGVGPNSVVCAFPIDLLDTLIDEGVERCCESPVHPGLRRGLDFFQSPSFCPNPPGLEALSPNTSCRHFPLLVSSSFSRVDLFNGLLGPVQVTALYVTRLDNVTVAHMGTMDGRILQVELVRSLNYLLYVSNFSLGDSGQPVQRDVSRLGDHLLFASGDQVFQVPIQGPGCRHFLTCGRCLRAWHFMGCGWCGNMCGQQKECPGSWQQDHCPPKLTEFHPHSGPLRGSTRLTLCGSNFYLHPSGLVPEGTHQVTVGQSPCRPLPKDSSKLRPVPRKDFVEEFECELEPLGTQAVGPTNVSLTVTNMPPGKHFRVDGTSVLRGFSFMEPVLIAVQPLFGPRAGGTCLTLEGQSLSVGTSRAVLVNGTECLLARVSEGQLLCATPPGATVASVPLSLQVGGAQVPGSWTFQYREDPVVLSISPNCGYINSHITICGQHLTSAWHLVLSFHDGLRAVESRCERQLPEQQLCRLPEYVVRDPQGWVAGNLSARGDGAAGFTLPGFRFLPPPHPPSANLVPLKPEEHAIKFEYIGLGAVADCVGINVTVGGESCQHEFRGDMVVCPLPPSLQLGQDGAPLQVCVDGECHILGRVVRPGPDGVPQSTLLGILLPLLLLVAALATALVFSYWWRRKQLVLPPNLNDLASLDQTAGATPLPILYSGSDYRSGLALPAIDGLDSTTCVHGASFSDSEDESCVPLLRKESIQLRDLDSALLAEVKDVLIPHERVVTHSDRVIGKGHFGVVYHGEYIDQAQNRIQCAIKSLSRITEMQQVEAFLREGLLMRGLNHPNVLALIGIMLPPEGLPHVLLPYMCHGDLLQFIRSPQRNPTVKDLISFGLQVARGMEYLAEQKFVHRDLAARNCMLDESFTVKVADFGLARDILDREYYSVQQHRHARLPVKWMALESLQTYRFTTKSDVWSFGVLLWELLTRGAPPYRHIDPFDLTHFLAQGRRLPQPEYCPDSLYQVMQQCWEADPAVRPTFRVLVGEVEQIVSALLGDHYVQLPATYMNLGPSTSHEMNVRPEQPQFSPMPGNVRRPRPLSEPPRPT
T1 sequence (P07949 29-1114): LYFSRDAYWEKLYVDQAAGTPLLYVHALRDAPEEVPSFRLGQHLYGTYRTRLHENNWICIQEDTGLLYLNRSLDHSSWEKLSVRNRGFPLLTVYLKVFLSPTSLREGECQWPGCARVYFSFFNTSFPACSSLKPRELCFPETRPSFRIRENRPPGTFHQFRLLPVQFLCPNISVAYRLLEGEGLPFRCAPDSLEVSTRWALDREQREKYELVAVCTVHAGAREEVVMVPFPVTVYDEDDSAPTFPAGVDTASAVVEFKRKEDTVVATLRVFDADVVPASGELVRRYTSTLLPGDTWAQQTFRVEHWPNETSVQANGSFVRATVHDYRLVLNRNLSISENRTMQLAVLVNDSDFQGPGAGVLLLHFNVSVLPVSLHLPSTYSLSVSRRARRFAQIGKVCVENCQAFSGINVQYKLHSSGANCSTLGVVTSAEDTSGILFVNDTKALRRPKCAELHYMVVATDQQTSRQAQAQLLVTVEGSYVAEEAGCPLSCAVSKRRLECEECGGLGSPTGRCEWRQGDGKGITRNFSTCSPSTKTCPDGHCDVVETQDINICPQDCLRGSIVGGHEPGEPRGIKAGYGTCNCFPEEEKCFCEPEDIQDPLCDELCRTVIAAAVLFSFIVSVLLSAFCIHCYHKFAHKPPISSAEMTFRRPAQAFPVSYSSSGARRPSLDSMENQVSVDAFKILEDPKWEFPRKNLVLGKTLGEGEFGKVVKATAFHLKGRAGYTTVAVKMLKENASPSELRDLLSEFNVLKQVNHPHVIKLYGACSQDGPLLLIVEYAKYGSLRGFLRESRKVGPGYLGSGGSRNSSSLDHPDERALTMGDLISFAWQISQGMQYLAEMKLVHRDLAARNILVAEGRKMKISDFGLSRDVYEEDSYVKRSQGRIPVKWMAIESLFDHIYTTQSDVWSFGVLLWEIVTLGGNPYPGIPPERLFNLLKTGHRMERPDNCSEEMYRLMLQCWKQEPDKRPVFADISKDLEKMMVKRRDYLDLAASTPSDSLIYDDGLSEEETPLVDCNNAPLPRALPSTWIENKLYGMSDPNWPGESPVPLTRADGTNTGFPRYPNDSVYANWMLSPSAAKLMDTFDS
T2 sequence (P35916 25-1363): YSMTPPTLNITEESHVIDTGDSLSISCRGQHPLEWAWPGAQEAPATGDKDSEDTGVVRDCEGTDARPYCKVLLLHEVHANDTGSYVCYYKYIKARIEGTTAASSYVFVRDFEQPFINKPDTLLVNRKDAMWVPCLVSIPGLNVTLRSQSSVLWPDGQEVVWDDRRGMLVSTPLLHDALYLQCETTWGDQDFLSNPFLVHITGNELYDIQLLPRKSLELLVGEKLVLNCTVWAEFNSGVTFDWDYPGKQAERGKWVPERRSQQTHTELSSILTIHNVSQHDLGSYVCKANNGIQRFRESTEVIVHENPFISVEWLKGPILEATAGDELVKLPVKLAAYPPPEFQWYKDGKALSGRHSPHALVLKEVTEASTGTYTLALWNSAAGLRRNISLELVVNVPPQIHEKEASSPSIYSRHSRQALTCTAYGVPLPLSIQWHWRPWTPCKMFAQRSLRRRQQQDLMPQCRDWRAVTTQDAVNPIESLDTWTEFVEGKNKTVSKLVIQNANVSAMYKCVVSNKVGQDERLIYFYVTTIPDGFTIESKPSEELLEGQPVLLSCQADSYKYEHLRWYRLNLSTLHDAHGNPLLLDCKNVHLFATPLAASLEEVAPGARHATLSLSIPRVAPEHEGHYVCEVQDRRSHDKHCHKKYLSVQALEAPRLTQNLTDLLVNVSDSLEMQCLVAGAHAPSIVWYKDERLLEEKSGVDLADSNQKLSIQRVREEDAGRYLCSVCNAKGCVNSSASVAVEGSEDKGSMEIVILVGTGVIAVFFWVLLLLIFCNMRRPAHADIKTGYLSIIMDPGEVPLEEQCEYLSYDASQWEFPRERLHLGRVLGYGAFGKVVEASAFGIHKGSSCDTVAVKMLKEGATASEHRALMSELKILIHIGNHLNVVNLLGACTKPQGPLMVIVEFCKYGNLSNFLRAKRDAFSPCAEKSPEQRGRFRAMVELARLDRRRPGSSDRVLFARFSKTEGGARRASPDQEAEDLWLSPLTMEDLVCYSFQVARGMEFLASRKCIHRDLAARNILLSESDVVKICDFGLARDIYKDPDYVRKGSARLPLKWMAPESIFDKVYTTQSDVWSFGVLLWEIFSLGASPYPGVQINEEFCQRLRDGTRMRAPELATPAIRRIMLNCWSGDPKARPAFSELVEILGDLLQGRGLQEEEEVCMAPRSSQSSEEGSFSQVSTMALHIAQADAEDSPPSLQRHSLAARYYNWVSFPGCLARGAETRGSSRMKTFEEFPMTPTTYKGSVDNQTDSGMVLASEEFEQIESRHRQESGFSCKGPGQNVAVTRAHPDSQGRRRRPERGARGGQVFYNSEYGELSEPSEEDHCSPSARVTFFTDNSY
T4 sequence (P17948 27-1338): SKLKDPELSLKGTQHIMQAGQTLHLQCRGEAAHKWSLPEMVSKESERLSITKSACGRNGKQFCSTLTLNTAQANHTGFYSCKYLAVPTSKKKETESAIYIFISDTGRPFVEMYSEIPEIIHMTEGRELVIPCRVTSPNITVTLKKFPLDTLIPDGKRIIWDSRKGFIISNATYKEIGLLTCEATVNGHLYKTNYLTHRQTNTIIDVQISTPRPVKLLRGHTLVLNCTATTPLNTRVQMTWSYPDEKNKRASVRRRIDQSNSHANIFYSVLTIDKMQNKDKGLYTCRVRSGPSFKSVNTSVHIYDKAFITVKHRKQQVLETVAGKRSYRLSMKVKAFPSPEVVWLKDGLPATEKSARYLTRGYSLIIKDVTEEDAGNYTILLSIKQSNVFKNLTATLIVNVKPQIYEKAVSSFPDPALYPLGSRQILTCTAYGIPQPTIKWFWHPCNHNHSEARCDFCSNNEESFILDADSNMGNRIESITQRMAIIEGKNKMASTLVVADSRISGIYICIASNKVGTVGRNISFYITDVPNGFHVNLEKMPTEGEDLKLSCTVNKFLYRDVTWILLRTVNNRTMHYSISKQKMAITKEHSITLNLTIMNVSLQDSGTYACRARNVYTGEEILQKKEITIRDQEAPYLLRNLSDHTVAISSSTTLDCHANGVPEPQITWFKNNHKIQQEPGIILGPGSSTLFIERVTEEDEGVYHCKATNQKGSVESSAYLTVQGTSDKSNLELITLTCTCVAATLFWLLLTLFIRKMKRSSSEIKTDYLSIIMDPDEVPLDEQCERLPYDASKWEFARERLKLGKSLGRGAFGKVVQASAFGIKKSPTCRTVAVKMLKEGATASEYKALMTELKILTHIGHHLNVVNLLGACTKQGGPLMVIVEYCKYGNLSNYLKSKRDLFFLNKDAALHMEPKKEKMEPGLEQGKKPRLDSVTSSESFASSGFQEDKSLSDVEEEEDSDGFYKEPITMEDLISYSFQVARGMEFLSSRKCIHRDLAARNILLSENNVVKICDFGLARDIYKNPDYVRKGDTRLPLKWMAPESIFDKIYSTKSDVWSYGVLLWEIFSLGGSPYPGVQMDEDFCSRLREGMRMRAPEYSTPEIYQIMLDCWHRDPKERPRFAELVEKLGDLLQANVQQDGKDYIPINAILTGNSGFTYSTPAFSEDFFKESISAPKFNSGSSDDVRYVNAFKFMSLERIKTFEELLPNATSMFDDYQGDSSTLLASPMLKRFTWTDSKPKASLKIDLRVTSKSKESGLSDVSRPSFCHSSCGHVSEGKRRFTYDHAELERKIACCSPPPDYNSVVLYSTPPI

In the case of `O=C(Nc1cc(Oc2cc(F)c(NC(=O)C3(C(=O)Nc4ccc(F)cc4)CC3)cc2F)ccn1)N1CC(CO)C1` [N-(2,5-Difluoro-4-{[2-({[3-(hydroxymethyl)azetidin-1-yl]carbonyl}amino)pyridin-4-yl]oxy}phenyl)-N′-(4-fluorophenyl)cyclopropane-1,1-dicarboxamide], the IC50 was 5.5 nM in test [1]; 28 nM in test [2]; 6.2 nM in test [3]; 2.6 nM in test [4]; 14 nM in test [5].
Consider `CN1CCC(N(C)C(=O)Nc2cc(Oc3cc(F)c(NC(=O)C4(C(=O)Nc5ccc(F)cc5)CC4)cc3F)ccn2)CC1` [N-(2,5-Difluoro-4-{[2-({[methyl(1-methylpiperidin-4-yl)amino]carbonyl}amino)pyridin-4-yl]oxy}phenyl)-N′-(4-fluorophenyl)cyclopropane-1,1-dicarboxamide], for which the IC50 in test [1] was found to be 21 nM; in test [2], 36 nM; in test [3], 11 nM; in test [4], 1.8 nM; in test [5] it was 12 nM.
`O=C(Nc1cc(Oc2cc(F)c(NC(=O)C3(C(=O)Nc4ccc(F)cc4)CC3)cc2F)ccn1)N1CC(O)C1` [N-{2,5-Difluoro-4-[(2-{[(3-hydroxyazetidin-1-yl)carbonyl]amino}pyridin-4-yl)oxy]phenyl}-N′-(4-fluorophenyl)cyclopropane-1,1-dicarboxamide]: the IC50 in test [1] was determined as 15 nM; in test [2], 44 nM; in test [3], 10 nM; in test [4] it was 4.6 nM; in test [5] it was 26 nM.
For the molecule `CN1CCN(C2CCN(C(=O)Nc3cc(Oc4cc(F)c(NC(=O)C5(C(=O)Nc6ccc(F)cc6)CC5)cc4F)ccn3)CC2)CC1` [N-(2,5-Difluoro-4-{[2-({[4-(4-methylpiperazin-1-yl)piperidin-1-yl]carbonyl}amino)pyridin-4-yl]oxy}phenyl)-N′-(4-fluorophenyl)cyclopropane-1,1-dicarboxamide], the half-maximal inhibitory concentration (IC50) is 20 nM in test [1]; 38 nM in test [2]; 22 nM in test [3]; 2.4 nM in test [4]; 21 nM in test [5].
For `O=C(Nc1cc(Oc2ccc(NC(=O)C3(C(=O)Nc4ccc(F)cc4)CC3)c(F)c2)ccn1)N1CCC1` [N-[4-({2-[(Azetidin-1-ylcarbonyl)amino]pyridin-4-yl}oxy)-2-fluorophenyl]-N′-(4-fluorophenyl)cyclopropane-1,1-dicarboxamide], the concentration for half-maximal inhibition (IC50) came out at 38 nM in test [1]; 99 nM in test [2]; 36 nM in test [3]; 26 nM in test [4]; 71 nM in test [5].

The term IC50 denotes the concentration that inhibits the measured activity by half.
